Each molecule was assayed against recombinant human Vps34 (Homo sapiens, UniProt Q8NEB9) (assay: Vps34 KinaseGlo assay). Settings: KinaseGlo luminescence ATP detection; PI/OG substrate; 1 μM ATP; room temperature; 8 concentrations, n=2.
Type: biochemical
Experimental: It was then resuspended in 3% OctylGlucoside by vortexing and stored at 4° C. 5 μL of a mix of PI/OG with recombinant human Vps34 were added. Kinase reactions were started by addition of 5 μl of ATP-mix containing in a final volume 10 μL 10 mM TRIS-HCl pH 7.5, 3 mM MgCl2, 50 mM NaCl, 0.05% CHAPS, 1 mM DTT and 1 μM ATP, and occurred at room temperature. Reactions were stopped with 10 μl of KinaseGlo and plates were read 10 minutes later in a Synergy2 reader using an integration time of 0.1 seconds per well.

Chain of recombinant human Vps34 (Q8NEB9 whole entry): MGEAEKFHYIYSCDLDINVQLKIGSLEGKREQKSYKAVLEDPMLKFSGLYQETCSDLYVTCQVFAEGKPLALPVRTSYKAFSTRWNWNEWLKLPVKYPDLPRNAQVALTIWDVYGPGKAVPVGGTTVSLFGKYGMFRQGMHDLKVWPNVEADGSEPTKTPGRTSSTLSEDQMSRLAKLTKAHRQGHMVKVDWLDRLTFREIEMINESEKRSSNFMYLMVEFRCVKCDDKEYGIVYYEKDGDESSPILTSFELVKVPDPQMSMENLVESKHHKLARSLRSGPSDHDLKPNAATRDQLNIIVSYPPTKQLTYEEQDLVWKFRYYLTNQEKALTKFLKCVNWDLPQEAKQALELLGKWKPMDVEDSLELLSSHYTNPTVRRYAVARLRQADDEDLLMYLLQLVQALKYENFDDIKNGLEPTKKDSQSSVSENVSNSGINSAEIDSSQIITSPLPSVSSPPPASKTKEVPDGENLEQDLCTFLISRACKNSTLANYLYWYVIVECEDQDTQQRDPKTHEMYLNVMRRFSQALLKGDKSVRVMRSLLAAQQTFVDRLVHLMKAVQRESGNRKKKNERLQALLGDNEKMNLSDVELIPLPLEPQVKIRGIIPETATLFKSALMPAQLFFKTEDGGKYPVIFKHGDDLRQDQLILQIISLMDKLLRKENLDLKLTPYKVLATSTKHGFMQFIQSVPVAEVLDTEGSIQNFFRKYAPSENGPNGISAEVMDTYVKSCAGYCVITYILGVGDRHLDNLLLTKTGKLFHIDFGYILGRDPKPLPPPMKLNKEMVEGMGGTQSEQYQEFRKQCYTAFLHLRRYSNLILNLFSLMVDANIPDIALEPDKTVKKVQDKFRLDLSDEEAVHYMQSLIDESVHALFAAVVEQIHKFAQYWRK

| IC50 [nM] | Structure (SMILES) |
| --- | --- |
| 31 | COCCNc1ncc(-c2ccnc(Nc3ccncc3)n2)c(CC2CC2)n1 [Example 10n, 4′-(cyclopropylmethyl)-N^2′-(2-methoxyethyl)-N^2-(pyridin-4-yl)-4,5′-bipyrimidine-2,2′-diamine] |
| 78.5 | c1cc(Nc2nccc(-c3cnc(NC4CCCC4)nc3CC3CC3)n2)ccn1 [Example 10e, N2′-cyclopentyl-4′-(cyclopropylmethyl)-N2-(pyridin-4-yl)-4,5′-bipyrimidine-2,2′-diamine] |
| 22.2 | Cc1nc(N)ncc1-c1ccnc(Nc2ccncc2)n1 [Example 21, 4′-Methyl-N^2-pyridin-4-yl-[4,5′]bipyrimidinyl-2,2′-diamine] |
| 31.5 | CC(CO)Nc1ncc(-c2ccnc(Nc3ccncc3)n2)c(CC2CC2)n1 (stereo not shown) [Example 10o, 2-(4′-(cyclopropylmethyl)-2-(pyridin-4-ylamino)-4,5′-bipyrimidin-2′-ylamino)propan-1-ol] |
| 53 | C[C@@H](CO)Nc1ncc(-c2ccnc(Nc3ccncc3)n2)c(CC2CC2)n1 [Example 10q, (S)-2-(4′-(cyclopropylmethyl)-2-(pyridin-4-ylamino)-4,5′-bipyrimidin-2′-ylamino)propan-1-ol] |
| 1360 | CNc1ncc(-c2ccnc(NC3CCCC3)n2)c(CC2CC2)n1 [Example 14h, N^2-cyclopentyl-4′-(cyclopropylmethyl)-N^2′-methyl-4,5′-bipyrimidine-2,2′-diamine] |
| 11.5 | OCCNc1ncc(-c2ccnc(Nc3ccncc3)n2)c(CC2CC2)n1 [Example 10m, 2-(4′-(cyclopropylmethyl)-2-(pyridin-4-ylamino)-4,5′-bipyrimidin-2′-ylamino)ethanol] |
| 286 | CNc1ncc(-c2ccnc(Nc3ccccc3)n2)c(CC2CC2)n1 [Example 14b, 4′-(cyclopropylmethyl)-N^2′-methyl-N^2-phenyl-4,5′-bipyrimidine-2,2′-diamine] |
| 439 | CNc1ncc(-c2ccnc(N[C@H]3CC[C@H](C(=O)O)CC3)n2)c(CC2CC2)n1 [Example 14n, (1r,4r)-4-(4′-(cyclopropylmethyl)-2′-(methylamino)-4,5′-bipyrimidin-2-ylamino)cyclohexanecarboxylic acid] |
| 35 | CC(C)(C)Nc1ncc(-c2ccnc(Nc3ccncc3)n2)c(CC2CC2)n1 [Example 10i, N^2′-tert-butyl-4′-(cyclopropylmethyl)-N^2-(pyridin-4-yl)-4,5′-bipyrimidine-2,2′-diamine] |
| 25 | CC(C)(O)CNc1ncc(-c2ccnc(Nc3ccc(C#N)cc3)n2)c(CC2CC2)n1 [Example 16b, 4-(4′-(cyclopropylmethyl)-2′-(2-hydroxy-2-methylpropylamino)-4,5′-bipyrimidin-2-ylamino)benzonitrile] |
| 111 | CNc1ncc(-c2ccnc(N[C@H]3CC[C@H](O)CC3)n2)c(CC2CC2)n1 [Example 6e, (1r, 4r)-4-(4′-(cyclopropylmethyl)-2′-(methylamino)-4,5′-bipyrimidin-2-ylamino)cyclohexanol] |
| 570 | c1cc(Nc2nccc(-c3cnc(NC4CCCCC4)nc3CC3CC3)n2)ccn1 [Example 12b, N^2′-cyclohexyl-4′-(cyclopropylmethyl)-N^2-(pyridin-4-yl)-4,5′-bipyrimidine-2,2′-diamine] |
| 199 | CS(=O)(=O)N[C@H]1CC[C@H](Nc2nccc(-c3cnc(N)nc3CC3CC3)n2)CC1 [Example 15b, N-((1r,4r)-4-(2′-amino-4′-(cyclopropylmethyl)-4,5′-bipyrimidin-2-ylamino)cyclohexyl)methanesulfonamide] |
| 115 | CNc1ncc(-c2ccnc(Nc3ccc(OC)nc3)n2)c(CC2CC2)n1 [Example 14a, 4′-Cyclopropylmethyl-N^2-(6-methoxy-pyridin-3-yl)-N^2′-methyl-[4,5′]bipyrimidinyl-2,2′-diamine] |
| 27 | N#Cc1ccc(Nc2nccc(-c3cnc(N)nc3CC3CC3)n2)cc1 [Example 15x, 4-(2′-amino-4′-(cyclopropylmethyl)-4,5′-bipyrimidin-2-ylamino)benzonitrile] |
